Molecules are shown by their SMILES.

Assay [1] concerns ovarian carcinoma and malignant melanoma. Briefly: Combination drug treatment cell growth assay, 72 h. In kind it is cell-based. Here is the method:
Drugs were purchased from Selleck Chem (Houston, Tex.) and LC Labs (Woburn, Mass.). Cells were grown as described by manufacturers' guidelines. […] For cell growth assays, 5000 cells were plated per well in a 96-well plate, treated with drugs the following day, and counted at 72 h according to either a rezasurin assay (PrestoBlue; Life Technologies, Grand Island, N.Y.) using manufacturer's guidelines, or by flow cytometry following trypsinization and immediate analysis on an LSR-II (BD Biosciences, San Jose, Calif.).

A further assay has as its system MDA-MB231-LM2 cells. Briefly: Orthotopic xenograft model of TNBC: tumor growth, metastasis, immunostaining, plasma receptors. The format is in vivo, mice. As to conditions: primary tumors, 21 days after treatment.
Another assay deals with panel of cell lines. Briefly: Proliferation/cytotoxicity cell count by flow cytometry. In kind it is cell-based. Particulars: individual drug treatment; rough approximation. As for the experimental part:
Proliferation and cytotoxicity were assessed by gently rinsing cells, trypsinizing for 15 min, and immediately counting cells by flow-cytometry. Live/dead staining routinely confirmed the majority (>98%) of counted cells to be alive using this procedure. Synergy was calculated using the model of Bliss independence (Bliss, C. I. The toxicity of poisons applied jointly Annals of applied biology 26, 585-615 (1939)), reported herein as the ratio of [observed combination effect size]/[predicted combination effect size], such that values >1 indicate super-additive drug effect, or synergy, and values <1 indicate antagonism. Drug concentrations for synergy measurements were chosen to roughly approximate the IC30 value averaged across the panel of cell lines for the individual drug treatments, and were 20 μM U0126, 7 μM PD325901, and 200 nM R428.
In general terms: A flow cytometer gives signals particle by particle.

For assay [2], the system named is supernatant TIMP-1 and -3. As to the kind of experiment: Antibody microarray analysis of MDA-MB231 supernatant. The format is cell-based. Particulars: 24 h; MDAMB231; Ab-microarray. Here is the method:
MDA-MB231 cells were plated in 10 cm plates at 70% confluency, treated the following day with either DMSO or PD325901, and supernatant was collected 24 hours (h) later. Using L-1000 RayBio (Norcross Ga.) microarrays, supernatant was processed according to manufacturer instructions. Two biological replicate samples were analyzed for the control and MEKi conditions, with one sample undiluted and the other diluted 1:5 in growth media. Each array contains duplicate antibody spots, and so a total of n=4 replicates was used to determine significant changes in supernatant proteins. Only proteins measured more than four standard deviations above background for at least one condition were included in the analysis. Gene set enrichment analysis was performed as previously described using gene ontology (GO) gene sets (Subramanian, A. et al., Gene set enrichment analysis: a knowledge-based approach for interpreting genome-wide expression profiles. Proc Natl Acad Sci USA 102, 15545-15550 (2005)). […] The other top gene-sets were “intrinsic to membrane”, “integral to membrane”, “receptor activity”, and “intrinsic to plasma membrane”. The highest enrichment score in PD325901-treated cells was for “hematopoietin interferon class-D200 domain cytokine receptor binding” comprising 10 non-transmembrane proteins, with a corresponding p-value of 0.003.

In a further assay the test system is surface AXL. As to conditions: 24 hours; 10 cell lines; more in lines with AXLi/MEKi synergy. As for the experimental part: Cells were trypsinized, rinsed in 4° C. phospho-buffered saline (PBS)+3% FBS, incubated with 1° Ab (i.e., primary antibody) in PBS+3% FBS for 1 h, rinsed, and fixed overnight in PBS+1% formaldehyde at 4° C. The following day, cells were rinsed, incubated with 2° Ab (i.e., secondary antibody) conjugated to either Alexa647 or Alexa546, rinsed, and analyzed by flow cytometry. Fold-change was determined after subtracting the median fluorescence from control cells stained with the IgG control antibody.

For a further assay, the system named is ADAM17. As to the kind of experiment: ADAM17 dimerization (s-EGS cross-linking, western blot). The format is cell-based. Particulars: 3 h; MDA-MB231, MDA-MB157, BT549. Here is the method:
For each condition, two confluent 15 cm plates of cells were serum-starved for 4 h, treated with inhibitor for 3 h, rinsed with 4° C. PBS, incubated with 0.5 mg/ml sulfo-EGS (Pierce) for 30 min., and lysed in 1% NP40 buffer. Lysates were clarified, precleared with agarose resin, incubated with protein A/G resin (Pierce) and anti-ADAM17 antibody (R&D Systems Duo-set) overnight, washed, and then boiled in denaturing lysis buffer. Methods roughly follow previously described protocols (Miller, M. A., Meyer, A. S., Beste, M. T., Lasisi, Z., Reddy, S., Jeng, K. W., Chen, C. H., Han, J., Isaacson, K., Griffith, L. G. et al. (2013). ADAM-10 and -17 regulate endometriotic cell migration via concerted ligand and receptor shedding feedback on kinase signaling, Proc Natl Acad Sci USA 110, E2074-E2083; Xu, P., Liu, J., Sakaki-Yumoto, M., and Derynck, R. (2012). TACE activation by MAPK-mediated regulation of cell surface dimerization and TIMP3 association, Sci Signal 5, ra34).
For orientation: A western blot detects proteins with antibodies after separation by electrophoresis.

In the next assay the test system is sheddase substrates. Briefly: Supernatant accumulation of sheddase substrates (ELISA, bead-based immunoassay). On the technique in general: In an ELISA, binding on a coated surface is turned into a signal by an enzyme label.
For a further assay, the system named is p-JNK. As to the kind of experiment: Short term BB94-elicited downstream phosphosignaling (bead-based immunoassay). In kind it is cell-based. Particulars: MDA-MB231; co-treatment with BB94; 2 h.
The test system of another assay is LOX-IMVI cells. As to the kind of experiment: Xenograft mouse model of melanoma. Particulars: in vivo. Also on record: species or system mice. As for the experimental part: For the xenograft melanoma experiment, 7 week old female athymic nude mice (Taconic) were injected with 1×10^6 LOX-IMVI cells in 1:1 Matrigel:HBSS subcutaneously in each flank (Yang, D., et al. “RasGRP3, a Ras activator, contributes to signaling and the tumorigenic phenotype in human melanoma.” Oncogene 30, no. 45: 4590-4600 (2011)). 7 days post-cell injection, tumors were measured by calipers and mice were ranked by tumor size and semi-randomly divided into 6 groups of equal distribution in tumor size, with 10 mice per group. […]
Tumor volumes was measured two to three times a week, estimated using the spherical tumor volume formula V=4/3πr^3, where r is averaged from 4 caliper measurements performed by two blinded researchers. […] For metastasis quantification, the numbers of metastases were counted in paraffin-embedded, H&E-stained sections, by a blinded researcher. Upon sacrifice, blood was collected via cardiac puncture into a heparinized syringe, immediately centrifuged at 2000×g for 20 min, and plasma fraction was stored at −80° C. for later quantification of receptor levels by ELISA and bead-based immunoassay.

Another assay relates to AXL pY. Briefly: Short term p-AXL up-regulation (bead-based immunoassay). The format is cell-based. As to conditions: 2 h; MDAMB231. The source says:
pTyr-RTK measurements used bead-based immunocapture with a pan-pTyr detection antibody (EMD Millipore, Billerica, Mass.). Unless otherwise stated, immunoassays followed manufacturer protocols. Bead-based immunoassays were routinely normalized according to the micro BCA protein assay (Pierce) or cell count (ViCell). ADAM17 (pThr^735) and ADAM10 western blot Abs were from Sigma. Anti-phospho Histone H3 (Ser10) for measuring mitotic index was from EMD Millipore, (Billerica, Mass.). GAPDH (glyceraldehyde-3-phosphate dehydrogenase) and α-actinin were used for Western blotting and purchased from Cell Signaling Technology (Danvers, Mass.). APP Ab was from Abcam (Cambridge, Mass.). Live-cell immunostaining was performed using R&D Systems (Minneapolis, Minn.) Abs. SiRNAs, including non-targeting control siRNA, were packaged as SMARTpool ON-TARGETplus and used with DharmaFECT4 (Thermo Scientific, Tewksbury, Mass.). For ADAM10/17 western blots, lysis was performed with 50 mM tris-HCl (pH 7.5), 10% glycerol, 150 mM NaCl, and 1% NP-40, with complete protease (Roche, Nutley, N.J.) and phosphatase (Boston BioProducts, Ashland, Mass.) inhibitors added immediately before use.

Method for MDA-MB231-LM2 cells: For orthotopic mammary transplant assays, 6-week-old female NOD/SCID-gamma mice (JAX) were anesthetized by intraperitoneal (i.p.) injection of 125-250 mg/kg body weight of Avertin (reconstituted in PBS), followed by i.p. injection of 100 μL, of 12 μg/mL buprenorphine for analgesia. A small incision was made on the right flank, and 250,000 MDA-MB231-LM2 cells in 25 μL, of HBSS were injected into the right #4 fat pad using a 25-μL Hamilton syringe. Mice received three additional i.p. injections of 100 μL, of 12 μg/mL buprenorphine at 12 h intervals following the surgery. […] Twenty (20) days post-surgery, when tumor size was palpable, mice were ranked by tumor size and semi-randomly divided into four groups of equal distribution in tumor size. […]
MET and AXL levels were quantified by measuring fluorescent staining intensity over a line drawn radially from the tumor edge towards the tumor core. […] Regions with morphology characteristic of stroma or necrosis were generally avoided during quantification. Peak intensities along the line were confirmed by visual inspection as corresponding to cell membranes, and were quantified and indexed according to the distance from the tumor edge.
Method for sheddase substrates: The following inhibitors were used in FIG. 1H, at the following concentrations: metalloproteinase inhibitor BB94 (10 μM; Tocris Bioscience), p38 inhibitor SB203580 (20 μM; Selleck Chem), MEK1/2 inhibitor PD0325901 (10 μM; LC Labs), Met/AXL inhibitor XL-880 (5 μM; Selleck Chem), MEK1/2 inhibitor U0126 (10 μM; Selleck Chem), MEK1/2 inhibitor AZD6244 (10 μM; Selleck Chem), Aurora kinase inhibitor VX-680 (10 μM; Selleck Chem), PI3K inhibitor LY294002 (10 μM; Selleck Chem), JNK1/2 inhibitor JNK-IN-8 (3 μM; courtesy Nathaniel Gray, Harvard Medical School), JNK inhibitor SP600125 (10 μM; LC Labs), EGFR inhibitor gefitinib (1 μM; LC Labs), EGFR inhibitor erlotinib (1 μM; LC Labs), JNK inhibitor TCS-6o (1 μM; Tocris Bioscience), Abl inhibitor imatinib (1 μM; LC Labs), EGFR/HER2 inhibitor lapatinib (1 μM; LC Labs), AXL inhibitor R428 (3 μM; Selleck Chem), Alk5 inhibitor ALX-270-448 (5 μM; Enzo life sciences), AXL/MET inhibitor MP470 (5 μM; Selleck Chem), myosin light chain kinase inhibitor ML7 (1 μM; Sigma), and glycogen synthase kinase 3b inhibitor SB216763 (10 μM; Selleck Chem) Inhibitor concentrations were chosen based roughly on exceeding previously published Ki and IC50 values. The ADAM-10 inhibitor pro-ADAM-10 was from Biozyme, Inc. (St. Joseph, Mo.) and was used at 4 μM.
AXL, MET, TNFR1, and EGF-ligand supernatant measurements were performed using duo-set ELISA kits (R&D Systems, Minneapolis, Minn.). Total RTK measurements for HER2 and HER4 were performed using bead-based immunoassays (EMD Millipore, Billerica, Mass.).
For quantification of supernatant protein levels, cell supernatant was collected at the indicated time-point, spun for 5 min at 300 g, and frozen at −80° C. for future use. Supernatants were routinely normalized to cell count, determined via trypsinization and ViCell (Beckman Coulter, Brea, Calif.), and volumes were kept consistent across treatments.
As shown in FIG. 3A-3B, MDA-MB231 cells were treated with siRNA as described above and were seeded in 96-well plates at equal 90% confluency. Media was changed at 48 h post-transfection, and 24 h later supernatant was collected and cells were analyzed by live-cell immunostaining. For proADAM10 treatment, cells were seeded in 96-well plates at 90% confluency, treated with inhibitor or buffer control the following day, and supernatant was collected 24 h later.

Turning to `S=C(NCc1ccc2c(c1)OCO2)N1CCN(c2ncnc3c2oc2ccccc23)CC1` [MP470, amuvatinib], the “efficacy of combination treatment with MAPK and RTK inhibitors (cell count)” value in assay [1] is on record as “efficacious”.

For the molecule `O=C(NOC[C@H](O)CO)c1ccc(F)c(F)c1Nc1ccc(I)cc1F` [PD325901], the “AXL and MET ectodomain immunostaining near the tumor edge” value in the assay with MDA-MB231-LM2 cells is “up-regulation of AXL, and MET to a lesser degree”. Besides, the “IC30 value averaged across the panel of cell lines” value with panel of cell lines was approximately 7 µM. In addition, the “supernatant TIMP-1 and -3” value in assay [2] was “decreases supernatant TIMP-1 and -3”. For the same molecule, the “surface AXL” value in the assay with surface AXL is reported as “increase surface AXL”. Further, in the assay with ADAM17, the ADAM17 homodimerization result was “increased ADAM17 dimerization”. In addition, the “supernatant RTK accumulation” value in the assay with sheddase substrates (24 h, multiple cancer types) is on record as “reduced supernatant RTK accumulation”.

Take `Nc1nc(Nc2ccc3c(c2)CC[C@@H](N2CCCC2)CC3)nn1-c1cc2c(nn1)-c1ccccc1CCC2` [R428]: in the assay with panel of cell lines, the “IC30 value averaged across the panel of cell lines” value is approximately 0.2 µM. The “MPi-evoked p-JNK increase on co-treatment” value in the assay with p-JNK was “eliminated”. In the assay with LOX-IMVI cells, the overall survival entry is “no significant effect on overall survival”.

Regarding `N#CC(=C(/N)Sc1ccccc1N)/C(C#N)=C(\N)Sc1ccccc1N` [U0126], in the assay on AXL pY, the “total AXL pY” value is listed as “increases”. Moreover, the “IC30 value averaged across the panel of cell lines” value in the assay with panel of cell lines was approximately 20 µM. In addition, in the assay on surface AXL, the “surface AXL” value is on record as “increase surface AXL”. Moreover, in the assay with sheddase substrates (24 h, each dot a different cell line, ELISA), the “supernatant accumulation of sheddase substrates” value is on record as “reduces supernatant accumulation of sheddase substrates”. The “supernatant levels of multiple sheddase substrates (AREG, HBEGF, TGFα, TNFR1, AXL, MET, HER2, HER4)” value in the assay on sheddase substrates (MDA-MB231 cells) is on record as “consistently reduce supernatant levels of multiple sheddase substrates”.

For the molecule `COc1cc2c(Oc3ccc(NC(=O)C4(C(=O)Nc5ccc(F)cc5)CC4)cc3F)ccnc2cc1OCCCN1CCOCC1` [foretinib], in assay [1], the “efficacy of combination treatment with MAPK and RTK inhibitors (cell count)” value was “efficacious”.

For `CNC(=O)c1cc(Oc2ccc(NC(=O)Nc3ccc(Cl)c(C(F)(F)F)c3)cc2)ccn1` [sorafenib], the “efficacy of combination treatment with MAPK and RTK inhibitors (cell count)” value in [1] was “effective”.

The record behind these values is patent publication US10028958B2, “Methods of treating cancer with a combination of selected MEK1/2 and AXL inhibitors” (Massachusetts Institute of Technology, priority 2014, dated 2018).
